Laboratory results as given in article PMC12169615, “Fluorescent 4‑Nitrobenzo-2-oxa-1,3-diazole-Coupled Bile Acids as Probe Substrates of Hepatic and Intestinal Bile Acid Transporters of the Solute Carrier Families SLC10 and SLCO” (Journal of Medicinal Chemistry, 2025).
Several values for one entry are separate records, joined by “and”; a condition that tells them apart may be missing. Identical values can stand only once.

Assays:
human NTCP = target: T1, human NTCP (Homo sapiens, UniProt Q14973); experiment: Quantitative uptake of 3-NBD-BA in carrier-expressing HEK293 cells (fluorescence reader); format: cell-based; settings: NTCP-HEK293, 25 μM, 37 °C, +Na+ vs -Na+
T1 construct: HEK293 cell lines stably transfected with the full open reading frames of human NTCP; expressed in transfected cells
T1 sequence (Q14973 1-349): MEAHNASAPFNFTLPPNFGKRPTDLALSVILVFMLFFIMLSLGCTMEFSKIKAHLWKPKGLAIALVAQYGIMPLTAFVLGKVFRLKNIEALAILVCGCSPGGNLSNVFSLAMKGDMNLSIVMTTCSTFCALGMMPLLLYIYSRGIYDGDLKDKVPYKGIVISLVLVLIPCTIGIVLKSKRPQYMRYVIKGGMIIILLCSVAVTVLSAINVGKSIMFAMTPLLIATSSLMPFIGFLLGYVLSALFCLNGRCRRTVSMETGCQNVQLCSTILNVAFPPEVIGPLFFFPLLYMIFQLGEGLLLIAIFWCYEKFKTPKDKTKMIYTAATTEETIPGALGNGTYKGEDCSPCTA
Description: (§1) For quantification of the transport activity of the synthesized NBD-BA, all cell lines were seeded on 96 well plates and transport experiments were performed under the same control conditions (-Na^+ control for the SLC10 carriers and nontransfected HEK293 cells for the OATP carriers) as before (Figure ). For each NBD-BA, a substrate concentration of 25 μM was used, and the uptake phase was terminated after 10 min of incubation at 37 °C. […] The transport ratios ranged from 3-fold to 39-fold. In direct comparison, 3α-NBD-TCA (14d) and 3α-NBD-GCA (16d) were transported better than their 3β-analogs 3β-NBD-TCA (14a) and 3β-NBD-GCA (16a), respectively, clearly pointing to a preference for the α-position over the β-position of the 3-NBD-label. In direct comparison between the taurine- or glycine-conjugation of the respective NBD-BA, there was a clear preference for 3α-NBD-GCA (16d) over 3α-NBD-TCA (14d), at least for NTCP and mAsbt, pointing to a favorable substrate recognition for glycine-conjugated NBD-BA.
(§2) 5 Quantitative uptake experiments with the 3-NBD-BA in HEK293 cells stably expressing the human carriers NTCP, ASBT, SOAT, OATP1B1, and OATP1B3, or the mouse carriers mNtcp and mAsbt. For the SLC10 carriers, all transport experiments were performed in the presence (filled bars) and the absence (hatched bars) of sodium. For the OATP carriers, uptake into carrier-expressing cells (filled bars) was compared to uptake into non-carrier-expressing HEK293 cells (hatched bars). All cell lines were incubated at 37 °C for 10 min with the indicated 3-NBD-BA at 25 μM. Then, cells were washed with PBS and subjected to fluorescence detection. The following fluorescent BA were analyzed: 3α-NBD-TCA (14d), 3β-NBD-TCA (14a), 3α-NBD-GCA (16d), 3β-NBD-GCA (16a), 3β-NBD-TCDCA (14b), 3β-NBD-CDCA (6b), 3β-NBD-DCA (6c), 3α-NBD-CA (6d), and 3β-NBD-CA (6a). Data represent means ± SD of triplicate determinations of representative experiments. […] RFU, relative fluorescence units. TEXT PRINTED IN THE PICTURE: 3α-NBD-TCA (14d): NTCP: 9 X; mNtcp: 30 X; ASBT: 2 X; mAsbt: 14 X | 3ß-NBD-TCA (14a): NTCP: 12 X; mNtcp: 20 X; mAsbt: 18 X | 3α-NBD-GCA (16d): NTCP: 27 X; mNtcp: 26 X; ASBT: 3 X; mAsbt: 39 X | 3ß-NBD-GCA (16a): NTCP: 15 X; mNtcp: 14 X; mAsbt: 5 X | 3ß-NBD-TCDCA (14b): NTCP: 5 X; mNtcp: 3 X; mAsbt: 4 X | 3ß-NBD-CDCA (6b): mNtcp: < 2 X; ASBT: < 2 X; mAsbt: < 2 X; OATP1B1: < 2 X; OATP1B3: < 2 X | 3ß-NBD-DCA (6c): mNtcp: < 2 X; ASBT: < 2 X; mAsbt: < 2 X | 3α-NBD-CA (6d): mNtcp: 2 X; mAsbt: 4 X | 3ß-NBD-CA (6a): NTCP: 2 X; mNtcp: 2 X; mAsbt: 2 X DOUBTS OF THE COPYIST ABOUT THIS PICTURE: The picture prints no panel letters, so the chart titles (NTCP, mNtcp, ASBT, mAsbt, OATP1B1, OATP1B3) are written in front of the values as the target. / Substance labels: the sign after '3' is printed like 'ß' and may be meant as 'β'. / The 'ns' marks and significance asterisks were left out as statistics. The SOAT chart prints only 'ns'.

mouse mAsbt = target: T2, mouse mAsbt (Mus musculus, UniProt P70172); experiment: as above; format: cell-based; parameters: stably transfected with the full open reading frames of human NTCP, ASBT, SOAT, OATP1B1, and OATP1B3 as well as mouse mNtcp and mAsbt; expressed in transfected cells; settings: mAsbt-HEK293, 25 μM, 37 °C, +Na+ vs -Na+
T2 sequence (P70172 1-348): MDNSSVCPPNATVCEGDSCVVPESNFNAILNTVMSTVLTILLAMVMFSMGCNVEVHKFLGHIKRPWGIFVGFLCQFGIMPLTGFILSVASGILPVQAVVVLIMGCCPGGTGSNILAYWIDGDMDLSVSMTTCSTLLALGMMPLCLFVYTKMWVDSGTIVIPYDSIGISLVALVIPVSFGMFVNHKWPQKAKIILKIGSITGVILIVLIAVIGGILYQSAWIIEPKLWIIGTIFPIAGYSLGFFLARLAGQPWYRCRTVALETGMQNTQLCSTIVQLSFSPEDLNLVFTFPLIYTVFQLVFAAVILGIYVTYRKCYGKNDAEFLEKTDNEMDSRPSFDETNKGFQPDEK
Description: as §1, §2

| Molecule | Specific transport ratio NTCP (25µM/10 min uptake) (human NTCP) | Specific transport ratio mAsbt (25µM/10 min uptake) (mouse mAsbt) |
| --- | --- | --- |
| 7α-Hydroxy-3β-[(7-nitro-2,1,3-benzoxadiazol-4-yl)amino]-5β-cholan-24-oate [6b] | ns | <2x x-fold |
| 12α-Hydroxy-3β-[(7-nitro-2,1,3-benzoxadiazol-4-yl)amino]-5β-cholan-24-oate [6c] | ns | <2x x-fold |
| C[C@H](CCC(=O)O)[C@H]1CC[C@H]2[C@@H]3[C@H](O)C[C@@H]4C[C@@H](Nc5ccc([N+](=O)[O-])c6nonc56)CC[C@]4(C)[C@H]3C[C@H](O)[C@]12C [6a, 7α,12α-Dihydroxy-3β-[(7-nitro-2,1,3-benzoxadiazol-4-yl)amino]-5β-cholan-24-oate] | 2 x-fold and 2x x-fold | 2 x-fold and 2x x-fold |
| C[C@H](CCC(=O)O)[C@H]1CC[C@H]2[C@@H]3[C@H](O)C[C@@H]4C[C@H](Nc5ccc([N+](=O)[O-])c6nonc56)CC[C@]4(C)[C@H]3C[C@H](O)[C@]12C [6d, 7α,12α-Dihydroxy-3α-[(7-nitro-2,1,3-benzoxadiazol-4-yl)amino]-5β-cholan-24-oate] | ns | 4 x-fold and 4x x-fold |
| C[C@H](CCC(=O)NCCS(=O)(=O)[O-])[C@H]1CC[C@H]2[C@@H]3[C@H](O)C[C@@H]4C[C@@H](Nc5ccc([N+](=O)[O-])c6nonc56)CC[C@]4(C)[C@H]3C[C@H](O)[C@]12C.[Na+] [14a] | 12x x-fold | 18x x-fold |
| C[C@H](CCC(=O)NCCS(=O)(=O)[O-])[C@H]1CC[C@H]2[C@@H]3[C@H](O)C[C@@H]4C[C@H](Nc5ccc([N+](=O)[O-])c6nonc56)CC[C@]4(C)[C@H]3C[C@H](O)[C@]12C.[Na+] [14d] | 9x x-fold | 14x x-fold |
| C[C@H](CCC(=O)NCC(=O)O)[C@H]1CC[C@H]2[C@@H]3[C@H](O)C[C@@H]4C[C@@H](Nc5ccc([N+](=O)[O-])c6nonc56)CC[C@]4(C)[C@H]3C[C@H](O)[C@]12C [16a] | 15x x-fold | 5x x-fold |
| C[C@H](CCC(=O)NCC(=O)O)[C@H]1CC[C@H]2[C@@H]3[C@H](O)C[C@@H]4C[C@H](Nc5ccc([N+](=O)[O-])c6nonc56)CC[C@]4(C)[C@H]3C[C@H](O)[C@]12C [16d] | 27x x-fold | 39x x-fold |
